How the values were obtained:
Type in all cases: in vivo
[1] = tested on: AMBEL, Ragweed, Common, Ambrosia artemiisifolia, L.; experiment: Preemergence herbicidal evaluation (Example 148); conditions: rating scale 0-9, two to four weeks after treatment
Procedure, shortened: (§1)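 Visual rating vs. control (stand, vigor, malformation, size, chlorosis, overall appearance) at 2–4 wk post-treatment. Soil surface sprayed right after sowing; ~0.125–0.250 kg/ha in aqueous acetone. Repeat tests averaged.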

[2] = tested on: SETVI, Green foxtail, Setaria viridis, (L.)Beau; experiment: Preemergence herbicidal evaluation (Example 148); conditions: rating scale 0-9, two to four weeks after treatment
Procedure, shortened: as §1

[3] = tested on: ECHCG, Barnyardgrass, Echinochloa crusgalli, (L.)Beau; experiment: Preemergence herbicidal evaluation (Example 148); conditions: rating scale 0-9, two to four weeks after treatment
Procedure, shortened: as §1

[4] = tested on: GLXMA, Soybean, Glycine max, (L.) Merr.; experiment: Preemergence herbicidal evaluation (Example 148); conditions: rating scale 0-9, two to four weeks after treatment
Procedure, shortened: as §1

[5] = tested on: IPOHE, Morningglory, Ivyleaf, Ipomoea hederacea, (L)Jacq.; experiment: Preemergence herbicidal evaluation (Example 148); conditions: rating scale 0-9, two to four weeks after treatment
Procedure, shortened: as §1

[6] = tested on: ABUTH, Velvetleaf, Abutilon theophrasti, Medic.; experiment: Preemergence herbicidal evaluation (Example 148); conditions: rating scale 0-9, two to four weeks after treatment
Procedure, shortened: as §1

[7] = tested on: CHEAL, Lambsquarters, Chenopodium album, L. Common; experiment: Preemergence herbicidal evaluation (Example 148); conditions: rating scale 0-9, two to four weeks after treatment
Procedure, shortened: as §1

[8] = tested on: ALOMY, Blackgrass, Alopecurus myosuroides; experiment: Preemergence herbicidal evaluation (Example 148); conditions: rating scale 0-9, two to four weeks after treatment
Procedure, shortened: as §1

[9] = tested on: TRZAW, Winter wheat, Tritium Aestivum, L. (Winter); experiment: Preemergence herbicidal evaluation (Example 148); conditions: rating scale 0-9, two to four weeks after treatment
Procedure, shortened: as §1

[10] = tested on: XANST, Cocklebur, Xanthium strumariam; experiment: Preemergence herbicidal evaluation (Example 148); conditions: rating scale 0-9, two to four weeks after treatment
Procedure, shortened: as §1

[11] = tested on: ZEAMX, Field corn, Zea mays L.; experiment: Preemergence herbicidal evaluation (Example 148); conditions: rating scale 0-9, two to four weeks after treatment
Procedure, shortened: as §1

[12] = tested on: DIGSA, Crabgrass, (Hairy) L, Digitaria sanguinalis, (L)Scop; experiment: Preemergence herbicidal evaluation (Example 148); conditions: rating scale 0-9, two to four weeks after treatment
Procedure, shortened: as §1

[13] = tested on: AMBEL, Ragweed, Common, Ambrosia artemiisifolia, L.; experiment: Postemergence herbicidal evaluation (Example 147); conditions: rating scale 0-9, two to three weeks after treatment
Procedure, shortened: (§2)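 Visual 0-9 rating against an untreated control, scored roughly two to three weeks after a postemergence spray of two-week-old seedlings. Dose equivalent about 0.016 to 0.032 kg/ha, delivered in 80/20 acetone/water with 1.0% SUN-IT II at 40 psi.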

[14] = tested on: SETVI, Green foxtail, Setaria viridis, (L.)Beau; experiment: Postemergence herbicidal evaluation (Example 147); conditions: rating scale 0-9, two to three weeks after treatment
Procedure, shortened: as §2

[15] = tested on: ECHCG, Barnyardgrass, Echinochloa crusgalli, (L.)Beau; experiment: Postemergence herbicidal evaluation (Example 147); conditions: rating scale 0-9, two to three weeks after treatment
Procedure, shortened: as §2

[16] = tested on: GLXMA, Soybean, Glycine max, (L.) Merr.; experiment: Postemergence herbicidal evaluation (Example 147); conditions: rating scale 0-9, two to three weeks after treatment
Procedure, shortened: as §2

[17] = tested on: IPOHE, Morningglory, Ivyleaf, Ipomoea hederacea, (L)Jacq.; experiment: Postemergence herbicidal evaluation (Example 147); conditions: rating scale 0-9, two to three weeks after treatment
Procedure, shortened: as §2

[18] = tested on: ABUTH, Velvetleaf, Abutilon theophrasti, Medic.; experiment: Postemergence herbicidal evaluation (Example 147); conditions: rating scale 0-9, two to three weeks after treatment
Procedure, shortened: as §2

[19] = tested on: CHEAL, Lambsquarters, Chenopodium album, L. Common; experiment: Postemergence herbicidal evaluation (Example 147); conditions: rating scale 0-9, two to three weeks after treatment
Procedure, shortened: as §2

[20] = tested on: ALOMY, Blackgrass, Alopecurus myosuroides; experiment: Postemergence herbicidal evaluation (Example 147); conditions: rating scale 0-9, two to three weeks after treatment
Procedure, shortened: as §2

[21] = tested on: TRZAW, Winter wheat, Tritium Aestivum, L. (Winter); experiment: Postemergence herbicidal evaluation (Example 147); conditions: rating scale 0-9, two to three weeks after treatment
Procedure, shortened: as §2

[22] = tested on: XANST, Cocklebur, Xanthium strumariam; experiment: Postemergence herbicidal evaluation (Example 147); conditions: rating scale 0-9, two to three weeks after treatment
Procedure, shortened: as §2

[23] = tested on: ZEAMX, Field corn, Zea mays L.; experiment: Postemergence herbicidal evaluation (Example 147); conditions: rating scale 0-9, two to three weeks after treatment
Procedure, shortened: as §2

[24] = tested on: DIGSA, Crabgrass, (Hairy) L, Digitaria sanguinalis, (L)Scop; experiment: Postemergence herbicidal evaluation (Example 147); conditions: rating scale 0-9, two to three weeks after treatment
Procedure, shortened: as §2

CNS(=O)(=O)NC(=O)c1cc(-n2c(=O)cc(C(F)(F)F)n(C)c2=O)c(F)cc1Cl [Example 56]
Preemergence herbicidal rating AMBEL ([1]; rate 0.125 kg/ha): 9.0 | Preemergence herbicidal rating AMBEL ([1]; rate 0.25 kg/ha): 9.0 | Preemergence herbicidal rating SETVI ([2]; rate 0.125 kg/ha): 4.0 | Preemergence herbicidal rating SETVI ([2]; rate 0.25 kg/ha): 8.0 | Preemergence herbicidal rating ECHCG ([3]; rate 0.125 kg/ha): 3.0 | Preemergence herbicidal rating ECHCG ([3]; rate 0.25 kg/ha): 7.0 | Preemergence herbicidal rating GLXMA ([4]; rate 0.125 kg/ha): 2.0 | Preemergence herbicidal rating GLXMA ([4]; rate 0.25 kg/ha): 9.0 | Preemergence herbicidal rating IPOHE ([5]; rate 0.125 kg/ha): 8.0 | Preemergence herbicidal rating IPOHE ([5]; rate 0.25 kg/ha): 9.0 | Preemergence herbicidal rating ABUTH ([6]; rate 0.125 kg/ha): 9.0 | Preemergence herbicidal rating ABUTH ([6]; rate 0.25 kg/ha): 9.0 | Preemergence herbicidal rating CHEAL ([7]; rate 0.125 kg/ha): 9.0 | Preemergence herbicidal rating CHEAL ([7]; rate 0.25 kg/ha): 9.0 | Preemergence herbicidal rating ALMOY ([8]; rate 0.125 kg/ha): 0.0 | Preemergence herbicidal rating ALMOY ([8]; rate 0.25 kg/ha): 0.0 | Preemergence herbicidal rating TRZAW ([9]; rate 0.125 kg/ha): 0.0 | Preemergence herbicidal rating TRZAW ([9]; rate 0.25 kg/ha): 0.0 | Preemergence herbicidal rating XANST ([10]; rate 0.125 kg/ha): 8.0 | Preemergence herbicidal rating XANST ([10]; rate 0.25 kg/ha): 9.0 | Preemergence herbicidal rating ZEAMX ([11]; rate 0.125 kg/ha): 0.0 | Preemergence herbicidal rating ZEAMX ([11]; rate 0.25 kg/ha): 2.0 | Preemergence herbicidal rating DIGSA ([12]; rate 0.125 kg/ha): 7.0 | Preemergence herbicidal rating DIGSA ([12]; rate 0.25 kg/ha): 7.0 | Postemergence herbicidal rating AMBEL ([13]; rate 0.016 kg/ha): 8.0 | Postemergence herbicidal rating AMBEL ([13]; rate 0.032 kg/ha): 9.0 | Postemergence herbicidal rating SETVI ([14]; rate 0.016 kg/ha): 6.0 | Postemergence herbicidal rating SETVI ([14]; rate 0.032 kg/ha): 7.0 | Postemergence herbicidal rating ECHCG ([15]; rate 0.016 kg/ha): 7.0 | Postemergence herbicidal rating ECHCG ([15]; rate 0.032 kg/ha): 7.0 | Postemergence herbicidal rating GLXMA ([16]; rate 0.016 kg/ha): 8.5 | Postemergence herbicidal rating GLXMA ([16]; rate 0.032 kg/ha): 8.5 | Postemergence herbicidal rating IPOHE ([17]; rate 0.016 kg/ha): 9.0 | Postemergence herbicidal rating IPOHE ([17]; rate 0.032 kg/ha): 9.0 | Postemergence herbicidal rating ABUTH ([18]; rate 0.016 kg/ha): 9.0 | Postemergence herbicidal rating ABUTH ([18]; rate 0.032 kg/ha): 9.0 | Postemergence herbicidal rating CHEAL ([19]; rate 0.016 kg/ha): 7.0 | Postemergence herbicidal rating CHEAL ([19]; rate 0.032 kg/ha): 7.0 | Postemergence herbicidal rating ALMOY ([20]; rate 0.016 kg/ha): 2.0 | Postemergence herbicidal rating ALMOY ([20]; rate 0.032 kg/ha): 2.0 | Postemergence herbicidal rating TRZAW ([21]; rate 0.016 kg/ha): 4.0 | Postemergence herbicidal rating TRZAW ([21]; rate 0.032 kg/ha): 5.0 | Postemergence herbicidal rating XANST ([22]; rate 0.016 kg/ha): 9.0 | Postemergence herbicidal rating XANST ([22]; rate 0.032 kg/ha): 9.0 | Postemergence herbicidal rating ZEAMX ([23]; rate 0.016 kg/ha): 7.5 | Postemergence herbicidal rating ZEAMX ([23]; rate 0.032 kg/ha): 8.0 | Postemergence herbicidal rating DIGSA ([24]; rate 0.016 kg/ha): 3.0 | Postemergence herbicidal rating DIGSA ([24]; rate 0.032 kg/ha): 5.0

CC(C)N(C)S(=O)(=O)NC(=O)c1cc(-n2c(=O)cc(C(F)(F)F)n(N)c2=O)c(F)cc1Cl [Example 76]
Preemergence herbicidal rating AMBEL ([1]; rate 0.125 kg/ha): 8.0 | Preemergence herbicidal rating AMBEL ([1]; rate 0.25 kg/ha): 9.0 | Preemergence herbicidal rating SETVI ([2]; rate 0.125 kg/ha): 1.0 | Preemergence herbicidal rating SETVI ([2]; rate 0.25 kg/ha): 2.0 | Preemergence herbicidal rating ECHCG ([3]; rate 0.125 kg/ha): 1.0 | Preemergence herbicidal rating ECHCG ([3]; rate 0.25 kg/ha): 2.0 | Preemergence herbicidal rating GLXMA ([4]; rate 0.125 kg/ha): 1.0 | Preemergence herbicidal rating GLXMA ([4]; rate 0.25 kg/ha): 3.0 | Preemergence herbicidal rating IPOHE ([5]; rate 0.125 kg/ha): 5.0 | Preemergence herbicidal rating IPOHE ([5]; rate 0.25 kg/ha): 9.0 | Preemergence herbicidal rating ABUTH ([6]; rate 0.125 kg/ha): 9.0 | Preemergence herbicidal rating ABUTH ([6]; rate 0.25 kg/ha): 9.0 | Preemergence herbicidal rating CHEAL ([7]; rate 0.125 kg/ha): 8.0 | Preemergence herbicidal rating CHEAL ([7]; rate 0.25 kg/ha): 9.0 | Preemergence herbicidal rating ALMOY ([8]; rate 0.125 kg/ha): 0.0 | Preemergence herbicidal rating ALMOY ([8]; rate 0.25 kg/ha): 2.0 | Preemergence herbicidal rating TRZAW ([9]; rate 0.125 kg/ha): 0.0 | Preemergence herbicidal rating TRZAW ([9]; rate 0.25 kg/ha): 1.0 | Preemergence herbicidal rating XANST ([10]; rate 0.125 kg/ha): 3.0 | Preemergence herbicidal rating XANST ([10]; rate 0.25 kg/ha): 5.0 | Preemergence herbicidal rating ZEAMX ([11]; rate 0.125 kg/ha): 1.0 | Preemergence herbicidal rating ZEAMX ([11]; rate 0.25 kg/ha): 1.0 | Preemergence herbicidal rating DIGSA ([12]; rate 0.125 kg/ha): 2.0 | Preemergence herbicidal rating DIGSA ([12]; rate 0.25 kg/ha): 3.0 | Postemergence herbicidal rating AMBEL ([13]; rate 0.016 kg/ha): 8.0 | Postemergence herbicidal rating AMBEL ([13]; rate 0.032 kg/ha): 8.0 | Postemergence herbicidal rating SETVI ([14]; rate 0.016 kg/ha): 5.0 | Postemergence herbicidal rating SETVI ([14]; rate 0.032 kg/ha): 6.0 | Postemergence herbicidal rating ECHCG ([15]; rate 0.016 kg/ha): 5.0 | Postemergence herbicidal rating ECHCG ([15]; rate 0.032 kg/ha): 6.0 | Postemergence herbicidal rating GLXMA ([16]; rate 0.016 kg/ha): 7.5 | Postemergence herbicidal rating GLXMA ([16]; rate 0.032 kg/ha): 7.5 | Postemergence herbicidal rating IPOHE ([17]; rate 0.016 kg/ha): 9.0 | Postemergence herbicidal rating IPOHE ([17]; rate 0.032 kg/ha): 9.0 | Postemergence herbicidal rating ABUTH ([18]; rate 0.016 kg/ha): 9.0 | Postemergence herbicidal rating ABUTH ([18]; rate 0.032 kg/ha): 9.0 | Postemergence herbicidal rating CHEAL ([19]; rate 0.016 kg/ha): 6.0 | Postemergence herbicidal rating CHEAL ([19]; rate 0.032 kg/ha): 6.0 | Postemergence herbicidal rating ALMOY ([20]; rate 0.016 kg/ha): 1.0 | Postemergence herbicidal rating ALMOY ([20]; rate 0.032 kg/ha): 1.0 | Postemergence herbicidal rating TRZAW ([21]; rate 0.016 kg/ha): 5.0 | Postemergence herbicidal rating TRZAW ([21]; rate 0.032 kg/ha): 6.0 | Postemergence herbicidal rating XANST ([22]; rate 0.016 kg/ha): 9.0 | Postemergence herbicidal rating XANST ([22]; rate 0.032 kg/ha): 9.0 | Postemergence herbicidal rating ZEAMX ([23]; rate 0.016 kg/ha): 5.5 | Postemergence herbicidal rating ZEAMX ([23]; rate 0.032 kg/ha): 6.5 | Postemergence herbicidal rating DIGSA ([24]; rate 0.016 kg/ha): 3.0 | Postemergence herbicidal rating DIGSA ([24]; rate 0.032 kg/ha): 4.0

— patent US6689773B2, “Uracil substituted phenyl sulfamoyl carboxamides” (BASF Aktiengesellschaft, priority 2000, dated 2004)
